Measurements: patent US20240024273A1, “TOPICAL ADMINISTRATION OF 2-(DIETHYLAMINO)ETHYL 2-(4-ISOBUTYLPHENYL)PROPRIONATE FOR TREATMENT OF DISEASES” (TECHFIELDS PHARMA CO., LTD., priority 2020, published 2024)

Test system: Mild to Moderate Osteoarthritis of the Knee
Test: Phase 2 study: WOMAC difficulty performing daily activities subscale score
Format: in vivo, human
Conditions: for Change of WOMAC Difficulty performing daily activities score from baseline (±SEM) / Percentage of improvement from baseline, WOMAC Difficulty performing daily activities score: all patients taken as active
Source text: This is a Phase 2, multicenter, randomized, double blind (within dose), placebo controlled, parallel group, proof of concept, and dose range finding study to evaluate the efficacy, safety, and PK of 2-(diethylamino)ethyl 2-(4-isobutylphenyl)propionate hydrochloride spray in adult subjects with clinically symptomatic mild to moderate OA of the knee. For subjects with bilateral knee pain, both knees will be treated, but the most symptomatic knee (i.e., the most painful knee as measured by the Western Ontario and McMaster University Osteoarthritis Index [WOMAC® 3.1] pain subscale score at Screening) will be designated as the target knee for efficacy analyses. For subjects with unilateral knee pain, only the symptomatic (target) knee will be treated.
After a Screening Period of up to 3 weeks and radiographic evaluation of the target knee joint space, a subject will be randomly assigned to 1 of 3 treatment groups in a 1:1:1 ratio with a 2:1 ratio of active:placebo within each treatment group (ie, 2 subjects to active treatment and 1 subject to placebo): • Group A: 8.75 mg 2-(diethylamino)ethyl 2-(4-isobutylphenyl)propionate/knee (2 sprays/knee, one spray to the medial surface and one spray to the lateral surface of the knee), twice daily (BID, approximately every 12 hours; n=50) or placebo (2 sprays/knee), BID (approximately every 12 hours; n=25) for a total of 4 sprays per knee per day; • Group B: 17.5 mg 2-(diethylamino)ethyl 2-(4-isobutylphenyl)propionate/knee (4 sprays/knee, one spray to the medial surface and one spray to the lateral surface of the knee, and one spray to front and one spray to the back of the knee), BID (approximately every 12 hours; n=50) or placebo (4 sprays/knee), BID (approximately every 12 hours; n=25) for a total of 8 sprays per knee per day; • Group C: 35 mg 2-(diethylamino)ethyl 2-(4-isobutylphenyl)propionate/knee (8 sprays/knee, each spray is to be applied to a different non-overlapping area around the knee, and the areas are to be uniformly distributed around the knee), BID (approximately every 12 hours; n=50) or placebo (8 sprays/knee), BID (approximately every 12 hours; n=25) for a total of 16 sprays per knee per day.
The VAS version of the WOMAC will be used for the Primary and Secondary Efficacy Endpoints. Efficacy endpoints will be assessed at Screening and Baseline (Day 1) and at the Week 2, Week 4, Week 8, and Week 12/EOS visits.
3.9.2. Secondary Efficacy Endpoints: • 1. Change from Baseline in the WOMAC (VAS) pain subscale score for the target knee at 2, 4, and 8 weeks of treatment; • 2. Change from Baseline in the WOMAC (VAS) stiffness subscale scores for the target knee and WOMAC (VAS) functional ability subscale scores at 2, 4, 8, and 12 weeks of treatment; • 3. Change from Baseline in the overall WOMAC (VAS) score at 2, 4, 8, and 12 weeks of treatment.
The Secondary Efficacy Endpoints, change from Baseline in the WOMAC subscale scores for pain, stiffness, and functional ability, and overall WOMAC score at 2, 4, 8, and 12 weeks of treatment, will be analyzed using the same methods as for the Primary Efficacy Endpoint.
To determine this, we assumed that all patients received 2-(diethylamino)ethyl 2-(4-isobutylphenyl)propionate, active drug treatment (i.e. all patients who received 2-(diethylamino)ethyl 2-(4-isobutylphenyl)propionate or placebo treatment for 12 weeks or mixed up treatment during the 12-week treatment, as 2-(diethylamino)ethyl 2-(4-isobutylphenyl)propionate-treated). Based on this assumption, that is, to treat this trial as an open-label study and that all patients received active treatment, we conducted efficacy analysis using top-line efficacy datasets prepared by CRO and the re-analysis results are presented in the following tables (Tables 29-47). […] (William G. Bensen, Justus J. Fiechtner, James 1. McMillen, et. al. Treatment of Osteoarthritis with Celecoxib. Mayo Clin Proc, November 1999. Vol 74, 1095-1105.)

[1] = 8.75 mg/knee (BID), Follow up (week 13, day 91)
[2] = 8.75 mg/knee (BID), Week 2 (day 14)
[3] = 8.75 mg/knee (BID), Week 4 (day 28)
[4] = 8.75 mg/knee (BID), Week 8 (day 56)
[5] = 8.75 mg/knee (BID), Week 12 (day 84)
[6] = 17.5 mg/knee (BID), Follow up (week 13, day 91)
[7] = 17.5 mg/knee (BID), Week 2 (day 14)
[8] = 17.5 mg/knee (BID), Week 4 (day 28)
[9] = 17.5 mg/knee (BID), Week 8 (day 56)
[10] = 17.5 mg/knee (BID), Week 12 (day 84)
[11] = 35 mg/knee (BID), Follow up (week 13, day 91)
[12] = 35 mg/knee (BID), Week 2 (day 14)
[13] = 35 mg/knee (BID), Week 4 (day 28)

CCN(CC)CCOC(=O)C(C)c1ccc(CC(C)C)cc1 (stereo not shown) [2-(diethylamino)ethyl 2-(4-isobutylphenyl)propionate]
Change of WOMAC Difficulty performing daily activities score from baseline (±SEM), adjusted by […] of the Testing Drug Amount [1]: −34.6(±5.8) mm | Percentage of improvement from baseline, WOMAC Difficulty performing daily activities score, adjusted by […] of the Testing Drug Amount [1]: −57.6% | Change of WOMAC Difficulty performing daily activities score from baseline (±SEM) [1]: −20.3(±3.4) mm | Percentage of improvement from baseline, WOMAC Difficulty performing daily activities score [1]: −33.6% | Change of WOMAC Difficulty performing daily activities score from baseline (±SEM), adjusted by […] of the Testing Drug Amount [2]: −18.2(±4.4) mm | Percentage of improvement from baseline, WOMAC Difficulty performing daily activities score, adjusted by […] of the Testing Drug Amount [2]: −30.0% | Change of WOMAC Difficulty performing daily activities score from baseline (±SEM) [2]: −10.6(±2.6) mm | Percentage of improvement from baseline, WOMAC Difficulty performing daily activities score [2]: −17.5% | Change of WOMAC Difficulty performing daily activities score from baseline (±SEM), adjusted by […] of the Testing Drug Amount [3]: −28.1(±5.1) mm | Percentage of improvement from baseline, WOMAC Difficulty performing daily activities score, adjusted by […] of the Testing Drug Amount [3]: −46.7% | Change of WOMAC Difficulty performing daily activities score from baseline (±SEM) [3]: −16.4(±3.0) mm | Percentage of improvement from baseline, WOMAC Difficulty performing daily activities score [3]: −27.2% | Change of WOMAC Difficulty performing daily activities score from baseline (±SEM), adjusted by […] of the Testing Drug Amount [4]: −33.1(±5.3) mm | Percentage of improvement from baseline, WOMAC Difficulty performing daily activities score, adjusted by […] of the Testing Drug Amount [4]: −54.9% | Change of WOMAC Difficulty performing daily activities score from baseline (±SEM) [4]: −19.3(±3.1) mm | Percentage of improvement from baseline, WOMAC Difficulty performing daily activities score [4]: −32.0% | Change of WOMAC Difficulty performing daily activities score from baseline (±SEM), adjusted by […] of the Testing Drug Amount [5]: −35.3(±5.8) mm | Percentage of improvement from baseline, WOMAC Difficulty performing daily activities score, adjusted by […] of the Testing Drug Amount [5]: −58.5% | Change of WOMAC Difficulty performing daily activities score from baseline (±SEM) [5]: −20.6(±3.4) mm | Percentage of improvement from baseline, WOMAC Difficulty performing daily activities score [5]: −34.1% | Change of WOMAC Difficulty performing daily activities score from baseline (±SEM), adjusted by […] of the Testing Drug Amount [6]: −39.6(±5.5) mm | Percentage of improvement from baseline, WOMAC Difficulty performing daily activities score, adjusted by […] of the Testing Drug Amount [6]: −62.4% | Change of WOMAC Difficulty performing daily activities score from baseline (±SEM) [6]: −23.1(±3.2) mm | Percentage of improvement from baseline, WOMAC Difficulty performing daily activities score [6]: −36.4% | Change of WOMAC Difficulty performing daily activities score from baseline (±SEM), adjusted by […] of the Testing Drug Amount [7]: −26.2(±4.1) mm | Percentage of improvement from baseline, WOMAC Difficulty performing daily activities score, adjusted by […] of the Testing Drug Amount [7]: −41.3% | Change of WOMAC Difficulty performing daily activities score from baseline (±SEM) [7]: −15.3(±2.4) mm | Percentage of improvement from baseline, WOMAC Difficulty performing daily activities score [7]: −24.1% | Change of WOMAC Difficulty performing daily activities score from baseline (±SEM), adjusted by […] of the Testing Drug Amount [8]: −36.2(±4.8) mm | Percentage of improvement from baseline, WOMAC Difficulty performing daily activities score, adjusted by […] of the Testing Drug Amount [8]: −57.1% | Percentage of improvement from baseline, WOMAC Difficulty performing daily activities score [8]: −33.3% | Change of WOMAC Difficulty performing daily activities score from baseline (±SEM), adjusted by […] of the Testing Drug Amount [9]: −41.3(±5.1) mm | Percentage of improvement from baseline, WOMAC Difficulty performing daily activities score, adjusted by […] of the Testing Drug Amount [9]: −65.2% | Change of WOMAC Difficulty performing daily activities score from baseline (±SEM) [9]: −24.1(±3.0) mm | Percentage of improvement from baseline, WOMAC Difficulty performing daily activities score [9]: −38.0% | Change of WOMAC Difficulty performing daily activities score from baseline (±SEM), adjusted by […] of the Testing Drug Amount [10]: −46.1(±5.5) mm | Percentage of improvement from baseline, WOMAC Difficulty performing daily activities score, adjusted by […] of the Testing Drug Amount [10]: −72.7% | Change of WOMAC Difficulty performing daily activities score from baseline (±SEM) [10]: −26.9(±3.2) mm | Percentage of improvement from baseline, WOMAC Difficulty performing daily activities score [10]: −42.4% | Change of WOMAC Difficulty performing daily activities score from baseline (±SEM), adjusted by […] of the Testing Drug Amount [11]: −35.0(±4.5) mm | Percentage of improvement from baseline, WOMAC Difficulty performing daily activities score, adjusted by […] of the Testing Drug Amount [11]: −60.9% | Change of WOMAC Difficulty performing daily activities score from baseline (±SEM) [11]: −20.4(±2.6) mm | Percentage of improvement from baseline, WOMAC Difficulty performing daily activities score [11]: −35.5% | Change of WOMAC Difficulty performing daily activities score from baseline (±SEM), adjusted by […] of the Testing Drug Amount [12]: −16.1(±3.3) mm | Percentage of improvement from baseline, WOMAC Difficulty performing daily activities score, adjusted by […] of the Testing Drug Amount [12]: −28.1% | Change of WOMAC Difficulty performing daily activities score from baseline (±SEM) [12]: −9.4(±1.9) mm | Percentage of improvement from baseline, WOMAC Difficulty performing daily activities score [12]: −16.4% | Change of WOMAC Difficulty performing daily activities score from baseline (±SEM), adjusted by […] of the Testing Drug Amount [13]: −23.0(±3.9) mm | Percentage of improvement from baseline, WOMAC Difficulty performing daily activities score, adjusted by […] of the Testing Drug Amount [13]: −40.0% | Change of WOMAC Difficulty performing daily activities score from baseline (±SEM) [13]: −13.4(±2.3) mm | Percentage of improvement from baseline, WOMAC Difficulty performing daily activities score [13]: −23.3% | Change of WOMAC Difficulty performing daily activities score from baseline (±SEM), adjusted by […] of the Testing Drug Amount (35 mg/knee (BID), Week 8 (day 56)): −31.6(±4.5) mm
